“And” between values parts separate entries of the source, which are not always exact repeats. Equal entries are not always repeated. Toxic doses and inconclusive results are not listed. How the source made its calls: active means survival T/C of 150% or more; inactive means T/C below 125% in these data.
System: P388 leukemia ip, CD2F1 mice, survival T/C
Test: NCI In Vivo Anticancer Drug Screen. Data for tumor model P388 Leukemia (intraperitoneal) in CD2F1 (CDF1) mice
Conditions: endpoint: median survival time, higher = longer survival
Procedure, shortened: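 Mice carrying the transplanted tumor received test compound or vehicle. Survival was recorded in each group, and the value is the treated-group measurement divided by that of the vehicle-treated control group.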

[1] = dose: 50.0 mg/kg/injection, schedule: Q01DX005 (ip), vehicle: Klucel (hydroxypropylcellulose) (HPC)
[2] = dose: 100.0 mg/kg/injection, schedule: Q01DX005 (ip), vehicle: Klucel (hydroxypropylcellulose) (HPC)
[3] = dose: 200.0 mg/kg/injection, schedule: Q01DX005 (ip), vehicle: Klucel (hydroxypropylcellulose) (HPC)
[4] = dose: 50.0 mg/kg/injection, schedule: Q01DX005 (ip), vehicle: saline with Tween-80
[5] = dose: 100.0 mg/kg/injection, schedule: Q01DX005 (ip), vehicle: saline with Tween-80
[6] = dose: 200.0 mg/kg/injection, schedule: Q01DX005 (ip), vehicle: saline with Tween-80
[7] = dose: 25.0 mg/kg/injection, schedule: Q01DX009 (ip), vehicle: saline with Tween-80
[8] = dose: 50.0 mg/kg/injection, schedule: Q01DX009 (ip), vehicle: saline with Tween-80
[9] = dose: 100.0 mg/kg/injection, schedule: Q01DX009 (ip), vehicle: saline with Tween-80
[10] = dose: 60.0 mg/kg/injection, schedule: Q01DX005 (ip), vehicle: saline with Tween-80
[11] = dose: 120.0 mg/kg/injection, schedule: Q01DX005 (ip), vehicle: saline with Tween-80
[12] = dose: 240.0 mg/kg/injection, schedule: Q01DX005 (ip), vehicle: saline with Tween-80
[13] = dose: 50.0 mg/kg/injection, schedule: Q01DX005 (ip), vehicle: saline
[14] = dose: 100.0 mg/kg/injection, schedule: Q01DX005 (ip), vehicle: saline
[15] = dose: 200.0 mg/kg/injection, schedule: Q01DX005 (ip), vehicle: saline

Measured: T/C

O.O.[Cu+2].[Cu+2].[NH-]CCC(=O)[N-]C(Cc1cnc[nH]1)C(=O)O.[NH-]CCC(=O)[N-]C(Cc1cnc[nH]1)C(=O)O (stereo unspecified)
inactive: dose: 6.25 mg/kg/injection, schedule: Q01DX005 (ip), vehicle: Klucel (hydroxypropylcellulose) (HPC) 98 % of control | dose: 12.5 mg/kg/injection, schedule: Q01DX005 (ip), vehicle: Klucel (hydroxypropylcellulose) (HPC) 97 % of control | dose: 25.0 mg/kg/injection, schedule: Q01DX005 (ip), vehicle: Klucel (hydroxypropylcellulose) (HPC) 106 % of control

Cc1ccc(S(=O)(=O)C(Cc2cc(Cl)cc(Cl)c2O)C(=O)c2ccccc2)cc1 (stereo unspecified)
inactive: [1] 101 % of control | [2] 90 % of control | [3] 92 % of control

C=CCc1ccccc1NC(C)C(=O)OCC (stereo unspecified)
inactive: [4] 107 % of control | [5] 107 % of control | [6] 107 % of control

O=C(O)CCCOc1ccc(Cl)cc1Cl
inactive: dose: 100.0 mg/kg/injection, schedule: Q04DX003 (ip), vehicle: saline 109 % of control | dose: 200.0 mg/kg/injection, schedule: Q04DX003 (ip), vehicle: saline 100 % of control | dose: 400.0 mg/kg/injection, schedule: Q04DX003 (ip), vehicle: saline 100 % of control

CCCCN1CN(CCCC)CN(C(=S)c2c(Cl)cccc2Cl)C1
inactive: [7] 102 % of control | [8] 102 % of control | [9] 105 % of control

CCOP(=S)(OCC)Oc1cc(C)nc(C(C)C)n1
inactive: [8] 112 % of control | [9] 111 % of control

C=C1CC2(CC(C(=C)C)CCC2C)OC1=O (stereo unspecified)
inactive: dose: 100.0 mg/kg/injection, schedule: Q01DX001 (ip), vehicle: saline 101 % of control | dose: 200.0 mg/kg/injection, schedule: Q01DX001 (ip), vehicle: saline 99 % of control | dose: 400.0 mg/kg/injection, schedule: Q01DX001 (ip), vehicle: saline 102 % of control

O=C(Nc1ccccc1C(=O)Nc1ccccc1C(=O)O)c1cccnc1
inactive: dose: 100.0 mg/kg/injection, schedule: Q04DX002 (ip), vehicle: saline with Tween-80 109 % of control | dose: 200.0 mg/kg/injection, schedule: Q04DX002 (ip), vehicle: saline with Tween-80 100 % of control

COC(=O)C(C)c1cc2ccccc2[nH]1 (stereo unspecified)
inactive: [7] 100 % of control | [8] 99 % of control | [9] 113 % of control

O=C1C(c2ccccc2)=S=C2Sc3ccccc3N12
inactive: [8] 105 % of control | [9] 102 % of control | dose: 200.0 mg/kg/injection, schedule: Q01DX009 (ip), vehicle: saline with Tween-80 95 % of control

c1cc(OCC2CO2)cc(OCC2CO2)c1 (stereo unspecified)
inactive: dose: 3.12 mg/kg/injection, schedule: Q01DX009 (ip), vehicle: DMSO 88 % of control | dose: 6.25 mg/kg/injection, schedule: Q01DX009 (ip), vehicle: DMSO 88 % of control | dose: 12.5 mg/kg/injection, schedule: Q01DX009 (ip), vehicle: DMSO 100 % of control | dose: 25.0 mg/kg/injection, schedule: Q01DX009 (ip), vehicle: DMSO 104 % of control and 96 % of control | dose: 50.0 mg/kg/injection, schedule: Q01DX009 (ip), vehicle: DMSO 104 % of control | dose: 100.0 mg/kg/injection, schedule: Q01DX009 (ip), vehicle: DMSO 95 % of control

OC(CNc1c2ccccc2nc2ccccc12)COc1c2ccccc2nc2ccccc12 (stereo unspecified)
inactive: [10] 95 % of control | [11] 92 % of control | [12] 100 % of control

CC(NC(=O)CN(C)C(=O)OCc1ccccc1)C(=O)O (stereo unspecified)
inactive: [13] 102 % of control | [14] 96 % of control | [15] 100 % of control

c1ccc(CNc2ncccn2)nc1
inactive: [4] 100 % of control | [5] 96 % of control | [6] 100 % of control

CCOc1cc(=O)cc2n(-c3cc(OCC)c(OC(C)=O)c(OCC)c3)c3ccccc3nc1-2
inactive: dose: 50.0 mg/kg/injection, schedule: Q01DX009 (ip), vehicle: suspension in saline 99 % of control | dose: 100.0 mg/kg/injection, schedule: Q01DX009 (ip), vehicle: suspension in saline 100 % of control | dose: 200.0 mg/kg/injection, schedule: Q01DX009 (ip), vehicle: suspension in saline 99 % of control

CCCCCC1NC(C)(C)CO1 (stereo unspecified)
inactive: [13] 118 % of control | [14] 109 % of control | [15] 100 % of control

CC(=O)c1c(O)c(C)c(O)c2c1OC1=Cc3onc(C)c3C(=O)C12C (stereo unspecified)
inactive: dose: 50.0 mg/kg/injection, schedule: Q01DX009 (ip), vehicle: gum acacia 99 % of control and 102 % of control | dose: 100.0 mg/kg/injection, schedule: Q01DX009 (ip), vehicle: gum acacia 102 % of control and 104 % of control | dose: 200.0 mg/kg/injection, schedule: Q01DX009 (ip), vehicle: gum acacia 92 % of control and 93 % of control

O=S1(=O)CC(c2ccccc2)=NN=C(c2ccccc2)C1
inactive: dose: 50.0 mg/kg/injection, schedule: Q01DX009 (ip), vehicle: Klucel (hydroxypropylcellulose) (HPC) 93 % of control | dose: 100.0 mg/kg/injection, schedule: Q01DX009 (ip), vehicle: Klucel (hydroxypropylcellulose) (HPC) 93 % of control | dose: 200.0 mg/kg/injection, schedule: Q01DX009 (ip), vehicle: Klucel (hydroxypropylcellulose) (HPC) 88 % of control

NC(=O)c1nnn(Cc2cc(Cl)c(C(=O)c3ccc(Cl)cc3)c(Cl)c2)c1N
inactive: dose: 60.0 mg/kg/injection, schedule: Q01DX005 (ip), vehicle: Klucel (hydroxypropylcellulose) (HPC) 103 % of control | dose: 120.0 mg/kg/injection, schedule: Q01DX005 (ip), vehicle: Klucel (hydroxypropylcellulose) (HPC) 103 % of control | dose: 240.0 mg/kg/injection, schedule: Q01DX005 (ip), vehicle: Klucel (hydroxypropylcellulose) (HPC) 115 % of control | dose: 480.0 mg/kg/injection, schedule: Q01DX005 (ip), vehicle: Klucel (hydroxypropylcellulose) (HPC) 119 % of control

C=C(Cl)CC(N)C(=O)O (stereo unspecified)
inactive: [1] 104 % of control | [2] 104 % of control

Cc1cnc(C)c2ccccc12
inactive: [8] 109 % of control | [9] 117 % of control

COc1ccc(Br)cc1C(Nc1nncs1)Nc1nncs1
inactive: dose: 30.0 mg/kg/injection, schedule: Q01DX005 (ip), vehicle: saline with Tween-80 93 % of control | [10] 87 % of control and 89 % of control | [11] 92 % of control | [12] 90 % of control

C=CC(=O)N/C(N)=N\C(N)=O
inactive: dose: 3.0 mg/kg/injection, schedule: Q01DX005 (ip), vehicle: saline 110 % of control | dose: 6.0 mg/kg/injection, schedule: Q01DX005 (ip), vehicle: saline 112 % of control | dose: 12.0 mg/kg/injection, schedule: Q01DX005 (ip), vehicle: saline 113 % of control | dose: 12.5 mg/kg/injection, schedule: Q01DX005 (ip), vehicle: saline 113 % of control

O=c1[nH]c(=S)[nH]nc1/C=C/c1cccc(I)c1
inactive: dose: 12.5 mg/kg/injection, schedule: Q04DX002 (ip), vehicle: saline 100 % of control | dose: 25.0 mg/kg/injection, schedule: Q04DX002 (ip), vehicle: saline 100 % of control | dose: 50.0 mg/kg/injection, schedule: Q04DX002 (ip), vehicle: saline 100 % of control | dose: 200.0 mg/kg/injection, schedule: Q04DX002 (ip), vehicle: saline 106 % of control

CN(C)N1Cc2ccccc2NC1=O
inactive: [1] 102 % of control | [2] 96 % of control | [3] 110 % of control

CC(SCCCCCCCCCCCCSC(C)C(=O)O)C(=O)O (stereo unspecified)
inactive: [4] 106 % of control | [5] 97 % of control | [6] 100 % of control
